Experimental data taken from ChEMBL document CHEMBL3885861, “Open TG-GATES”.

Organism: Rattus norvegicus
Assay: Open TG-GATES - Regimen: Single
Type: toxicity, organism-based, Sprague-Dawley
Parameters: regimen Single, gender Male, age 6 weeks
Settings: in vivo, po, 3 mg/kg, route gavage, dose level Middle; for APTT / Bas / Eos / Fbg / Hb / Ht / Lym / MCH / MCHC / MCV / Mono / Neu / PT / Plat / RBC / Ret / WBC: tissue Blood; for KIDNEY_L / KIDNEY_R / KIDNEY_TOTAL: tissue Kidney; for LIVER: tissue Liver; for A/G / ALP / ALT / AST / BUN / CRE / Ca / Cl / DBIL / GLC / IP / K / LDH / Na / PL / RALB / TBIL / TC / TG / TP / gamma-GTP: tissue Plasma

CN1C(C(=O)Nc2ccccn2)=C(O)c2sc(Cl)cc2S1(=O)=O [LORNOXICAM]
TERMINAL_BW (3 h): 224.5 g
APTT (3 h): 20.3 s
Bas (3 h): 0.6%
Eos (3 h): 1%
Fbg (3 h): 223.8 mg/dL
Hb (3 h): 13.2 g/dL
Ht (3 h): 40%
Lym (3 h): 75.2%
MCH (3 h): 21 pg
MCHC (3 h): 32.9%
MCV (3 h): 63.8 fL
Mono (3 h): 3.4%
Neu (3 h): 19.6%
PT (3 h): 11.7 s
Plat (3 h): 123.9 x10_4/uL
RBC (3 h): 626.4 x10_4/ul
Ret (3 h): 7.2%
WBC (3 h): 135.4 x10_2/uL
KIDNEY_L (3 h): 1 g
KIDNEY_R (3 h): 1 g
KIDNEY_TOTAL (3 h): 2 g
LIVER (3 h): 10.3 g
A/G (3 h): 1.6
ALP (3 h): 1026.6 IU/L
ALT (3 h): 45.4 IU/L
AST (3 h): 81 IU/L
BUN (3 h): 12.4 mg/dL
CRE (3 h): 0.3 mg/dL
Ca (3 h): 10.8 mg/dL
Cl (3 h): 104 meq/L
DBIL (3 h): 0.074 mg/dL
GLC (3 h): 197 mg/dL
IP (3 h): 9 mg/dL
K (3 h): 4.1 meq/L
LDH (3 h): 163.8 IU/L
Na (3 h): 141.8 meq/L
PL (3 h): 152.8 mg/dL
RALB (3 h): 3.5 g/dL
TBIL (3 h): 0.1 mg/dL
TC (3 h): 82.4 mg/dL
TG (3 h): 73.8 mg/dL
TP (3 h): 5.7 g/dL
gamma-GTP (3 h): 1 IU/L
TERMINAL_BW (6 h): 222.9 g
APTT (6 h): 18.9 s
Bas (6 h): 0.6%
Eos (6 h): 0.8%
Fbg (6 h): 223.6 mg/dL
Hb (6 h): 13.4 g/dL
Ht (6 h): 40.2%
Lym (6 h): 78.4%
MCH (6 h): 21.3 pg
MCHC (6 h): 33.4%
MCV (6 h): 63.7 fL
Mono (6 h): 3.4%
Neu (6 h): 16.8%
PT (6 h): 12.3 s
Plat (6 h): 123.6 x10_4/uL
RBC (6 h): 631.2 x10_4/ul
Ret (6 h): 7.2%
WBC (6 h): 108.8 x10_2/uL
KIDNEY_L (6 h): 1 g
KIDNEY_R (6 h): 1 g
KIDNEY_TOTAL (6 h): 1.9 g
LIVER (6 h): 10 g
A/G (6 h): 1.7
ALP (6 h): 948.8 IU/L
ALT (6 h): 38.2 IU/L
AST (6 h): 72.8 IU/L
BUN (6 h): 11.8 mg/dL
CRE (6 h): 0.4 mg/dL
Ca (6 h): 10.6 mg/dL
Cl (6 h): 104 meq/L
DBIL (6 h): 0.074 mg/dL
GLC (6 h): 193.6 mg/dL
IP (6 h): 8.6 mg/dL
K (6 h): 4.1 meq/L
LDH (6 h): 159 IU/L
Na (6 h): 140.6 meq/L
PL (6 h): 134.8 mg/dL
RALB (6 h): 3.5 g/dL
TBIL (6 h): 0.2 mg/dL
TC (6 h): 75 mg/dL
TG (6 h): 64.4 mg/dL
TP (6 h): 5.6 g/dL
gamma-GTP (6 h): 0.8 IU/L
TERMINAL_BW (9 h): 223.4 g
APTT (9 h): 18.6 s
Bas (9 h): 0.4%
Eos (9 h): 0.8%
Fbg (9 h): 220.2 mg/dL
Hb (9 h): 13.2 g/dL
Ht (9 h): 39.2%
Lym (9 h): 71.2%
MCH (9 h): 21.6 pg
MCHC (9 h): 33.7%
MCV (9 h): 64.1 fL
Mono (9 h): 3.4%
Neu (9 h): 24%
PT (9 h): 12.2 s
Plat (9 h): 120.6 x10_4/uL
RBC (9 h): 611.6 x10_4/ul
Ret (9 h): 6.8%
WBC (9 h): 110.6 x10_2/uL
KIDNEY_L (9 h): 1 g
KIDNEY_R (9 h): 1 g
KIDNEY_TOTAL (9 h): 2 g
LIVER (9 h): 9.1 g
A/G (9 h): 1.6
ALP (9 h): 857.8 IU/L
ALT (9 h): 41.2 IU/L
AST (9 h): 69.8 IU/L
BUN (9 h): 10.8 mg/dL
CRE (9 h): 0.3 mg/dL
Ca (9 h): 10.5 mg/dL
Cl (9 h): 103.2 meq/L
DBIL (9 h): 0.064 mg/dL
GLC (9 h): 190 mg/dL
IP (9 h): 9.7 mg/dL
K (9 h): 4.1 meq/L
LDH (9 h): 168.6 IU/L
Na (9 h): 141.2 meq/L
PL (9 h): 125.4 mg/dL
RALB (9 h): 3.2 g/dL
TBIL (9 h): 0.1 mg/dL
TC (9 h): 66.2 mg/dL
TG (9 h): 54.4 mg/dL
TP (9 h): 5.3 g/dL
gamma-GTP (9 h): 1 IU/L
TERMINAL_BW (24 h): 235.4 g
APTT (24 h): 20 s
Bas (24 h): 0.2%
Eos (24 h): 0.2%
Fbg (24 h): 261.6 mg/dL
Hb (24 h): 12.8 g/dL
Ht (24 h): 39%
Lym (24 h): 60.2%
MCH (24 h): 20.8 pg
MCHC (24 h): 32.9%
MCV (24 h): 63.5 fL
Mono (24 h): 3.8%
Neu (24 h): 33.8%
PT (24 h): 12.1 s
Plat (24 h): 122.4 x10_4/uL
RBC (24 h): 614.2 x10_4/ul
Ret (24 h): 6.8%
WBC (24 h): 136.9 x10_2/uL
KIDNEY_L (24 h): 1 g
KIDNEY_R (24 h): 1 g
KIDNEY_TOTAL (24 h): 2.1 g
LIVER (24 h): 11.4 g
A/G (24 h): 1.5
ALP (24 h): 892.2 IU/L
ALT (24 h): 39.8 IU/L
AST (24 h): 67.6 IU/L
BUN (24 h): 13.2 mg/dL
CRE (24 h): 0.4 mg/dL
Ca (24 h): 10.5 mg/dL
Cl (24 h): 104.8 meq/L
DBIL (24 h): 0.078 mg/dL
GLC (24 h): 203.8 mg/dL
IP (24 h): 7.8 mg/dL
K (24 h): 4.2 meq/L
LDH (24 h): 207.8 IU/L
Na (24 h): 141.8 meq/L
PL (24 h): 133.2 mg/dL
RALB (24 h): 3.1 g/dL
TBIL (24 h): 0.1 mg/dL
TC (24 h): 68.2 mg/dL
TG (24 h): 74.4 mg/dL
TP (24 h): 5.1 g/dL
gamma-GTP (24 h): 0.8 IU/L
